Like-named read-outs stand apart in the source and are kept apart here.
What was measured:
[1] = Mouse; cited from earlier work
[2] = mouse at 2.5 and 100 mg/kg (cleft palate, skeletal defects, limb deformities); cited from earlier work
[3] = test system: subcutaneous Hey (Human Ovarian Cancer) tumors; settings: 100 mg/kg FUDR/Saline × 2 (1 & 14 days), i.p., 20 μL
Protocol: In this study, SCID mice bearing established (˜0.5 cm diameter) SC ovarian (Hey) tumors were used in this study and were randomized to equalize the tumor volume prior to initiation of drug therapy. Doses of 50 and 100 mg/kg were administered intratumorally. Floxuridine in saline at 100 mg/kg was administered by intraperitoneal injection. ATRIGEL® alone was administered in a volume equal to the 100 mg/kg group.
Mice were injected with 10×10^6 Hey (Human Ovarian Cancer) cells. When the average tumor diameter was approximately 0.5 cm, mice were divided into treatment groups such that the mean tumor volume in each group was equivalent and drug was administered. […] The volume of Floxuridine/polymer used was calculated assuming total release of drug from the polymer and a drug concentration of 0.10 mg/μL of polymer. […]
• All SCID mice used for this study were screened for IgG production and those mice producing IgG (“leaky”) were eliminated from the study group. • Mice were injected with 10×10^6 Hey cells. • When tumors achieved approximately 0.5 cm diameter, drug treatments were initiated. […] All treatments consisted of two injections (Days 1 and 14). • Mice were monitored weekly for weight, tumor size and toxicity symptoms (survival, general health, fur condition, etc.) for at least 5 weeks and the efficacy was compared

[4] = Dog; cited from earlier work
[5] = Rabbit; cited from earlier work
[6] = cited from earlier work
[7] = cited from earlier work; remark: listed apart in the source
[8] = Rat; cited from earlier work
[9] = test system: mouse embryo fibroblasts; settings: cited from earlier work

## O=c1[nH]c(=O)n([C@H]2C[C@H](O)[C@@H](CO)O2)cc1F [FUDR, 5-fluorodeoxyuridine]
[1]
  Lethal Intravenous Doses: 880 +/− 51
[2]
  Teratogenicity: Teratogenic
[3]
  Mortality (%): 0%
[3]; listed as free Floxuridine
  Mortality (%): all surviving
[4]
  Lethal Intravenous Doses: 157 +/− 46
[5]
  Lethal Intravenous Doses: 94 +/− 19.6
[6]; female rats at 25 or 50 mg/kg
  Reproductive Toxicant, female: reproductive toxicity
[6]; rat at 75 and 150 mg/kg (cleft palate, skeletal defects, limb deformities)
  Teratogenicity: Teratogenic
[6]; rats at 125-250 mg/kg i.p.
  Reproductive Toxicant, male: spermato-toxic
[7]; 50 mg/kg/day × 5 days
  MTD, cumulative dose: 250 mg/kg
[7]; normal (immunocompetent) mice, intraperitoneal injection, × 5 days
  maximum tolerated dose (MTD): 50 mg/kg/day
[8]
  Lethal Intravenous Doses: 670 +/− 73
[9]
  Mutagenicity: Mutagenic
